Reference: patent US8691993B2, “Piperidinyl naphthylacetic acids” (Hoffman-La Roche Inc., priority 2011, dated 2014)

Tested on: Th2 cells
Test: DK-PGD2-Induced IL-13 Production Assay in Th2 Cells
Assay type: cell-based
Conditions: inhibition of IL-13 production; human Th2 cells; 500 nM DK-PGD2; 4 hrs at 37° C.; ELISA
Protocol: DK-PGD2-Induced IL-13 Production Assay in Th2 Cells
Inhibition of 13,14-dihydro-15-keto Prostaglandin D2 (DK-PGD2)-induced IL-13 production in T helper type 2 (Th2) cells was applied to evaluate compound cellular potency.
Cultures of Th2 cells were established from blood of healthy human volunteers according to the following procedure. Peripheral blood mononuclear cells (PBMC) were first isolated from 50 mL of fresh blood by Ficoll-Hypaque density gradient centrifugation, followed by CD4^+ cell purification using a CD4^+ T Cell Isolation Kit II (from Miltenyi Biotec Inc.). The CD4^+ T cells were then differentiated to Th2 cells by culturing the cells in X-VIVO 15® medium (from Cambrex BioScience Walkersville Inc.) containing 10% human AB serum (serum of blood type AB from Invitrogen Corporation), 50 U/mL of recombinant human interleukin-2 (rhIL-2) (from PeproTech Inc.) and 100 ng/mL of recombinant human interleukin-4 (rhIL-4) (from PeproTech Inc.) for 7 days. The Th2 cells were isolated using a CD294 (CRTH2) MicroBead Kit (from Miltenyi Biotec Inc.) and amplified in X-VIVO 15® medium containing 10% human AB serum and 50 U/mL of rhIL-2 for 2 to 5 weeks. In general, 70% to 80% of the Th2 cells used in the assay are CRTH2-positive when analyzed by fluorescence-activated cell sorting using the BM16 antibody (as previously described) conjugated to Alexa Fluor 647.
The spontaneous production of IL-13 by Th2 cells was determined in the absence of DK-PGD2 stimulation and the value was subtracted from that in the presence of each compound for percent inhibition and IC50 calculations.
The percent inhibition of interleukin 13 (IL-13) production for a compound at various concentrations was calculated according to the following formula, [1-(IL-13 production in the presence of compound)/(IL-13 production in the presence of 0.15% DMSO)]×100. The IC50 value, defined as the concentration of a compound that is required for 50% inhibition of IL-13 production, was calculated by fitting the percent inhibition data for 7 concentrations to a sigmoidal dose-response (4 parameter logistic) model in the XLfit® software Excel add-in program [ID Business Solutions Ltd., model 205, where F(x)=(A+(B−A)/(1+((C/x)^D)))].

| SMILES | IC50 [nM] |
| --- | --- |
| Cc1c(CC(=O)O)cc2ccc(F)cc2c1C1CCN(S(C)(=O)=O)CC1 [Example 15, [6-Fluoro-4-(1-methanesulfonyl-piperidin-4-yl)-3-methyl-naphthalen-2-yl]-acetic acid] | 142 |
| Cc1c(CC(=O)O)cc2ccc(F)cc2c1C1CCN(S(=O)(=O)Cc2cccc(Cl)c2)CC1 [Example 21, {4-[1-(3-Chloro-phenylmethanesulfonyl)-piperidin-4-yl]-6-fluoro-3-methyl-naphthalen-2-yl}-acetic acid] | 45 |
| Cc1c(CC(=O)O)cc2ccc(F)cc2c1C1CCN(S(=O)(=O)Cc2ccc(Cl)cc2)CC1 [Example 22, {4-[1-(4-Chloro-phenylmethanesulfonyl)-piperidin-4-yl]-6-fluoro-3-methyl-naphthalen-2-yl}-acetic acid] | 23 |
| Cc1c(CC(=O)O)cc2ccc(F)cc2c1C1CCN(S(=O)(=O)c2cccc(C(F)(F)F)c2)CC1 [Example 23] | 266 |
| Cc1c(CC(=O)O)cc2ccc(F)cc2c1C1CCN(S(=O)(=O)C2CCCC2)CC1 [Example 24, [4-(1-Cyclopentanesulfonyl-piperidin-4-yl)-6-fluoro-3-methyl-naphthalen-2-yl]-acetic acid] | 23 |
| Cc1c(CC(=O)O)cc2ccc(F)cc2c1C1CCN(S(=O)(=O)N2CCCC2)CC1 [Example 25, {6-Fluoro-3-methyl-4-[1-(pyrrolidine-1-sulfonyl)-piperidin-4-yl]-naphthalen-2-yl}-acetic acid] | 14 |
| Cc1c(CC(=O)O)cc2ccc(F)cc2c1C1CCN(S(=O)(=O)Cc2ccccc2[N+](=O)[O-])CC1 [Example 26, {6-Fluoro-3-methyl-4-[1-(2-nitro-phenylmethanesulfonyl)-piperidin-4-yl]-naphthalen-2-yl}-acetic acid] | 32 |
| Cc1c(CC(=O)O)cc2ccc(F)cc2c1C1CCN(C(=O)c2ccc(Cl)cc2Cl)CC1 [Example 28, {4-[1-(2,4-Dichloro-benzoyl)-piperidin-4-yl]-6-fluoro-3-methyl-naphthalen-2-yl}-acetic acid] | 60 |

Further lines, results first:

| IC50 [nM] | SMILES |
| --- | --- |
| 33 | Cc1c(CC(=O)O)cc2ccc(F)cc2c1C1CCN(S(=O)(=O)c2ccccc2Cl)CC1 [Example 14, {4-[1-(2-Chloro-benzenesulfonyl)-piperidin-4-yl]-6-fluoro-3-methyl-naphthalen-2-yl}-acetic acid] |
| 22 | Cc1c(CC(=O)O)cc2ccc(F)cc2c1C1CCN(S(=O)(=O)c2ccc(Cl)cc2Cl)CC1 [Example 16, {4-[1-(2,4-Dichloro-benzenesulfonyl)-piperidin-4-yl]-6-fluoro-3-methyl-naphthalen-2-yl}-acetic acid] |
| 120 | Cc1c(CC(=O)O)cc2ccc(F)cc2c1C1CCN(S(=O)(=O)c2cc(Cl)ccc2Cl)CC1 [Example 17, {4-[1-(2,5-Dichloro-benzenesulfonyl)-piperidin-4-yl]-6-fluoro-3-methyl-naphthalen-2-yl}-acetic acid] |
| 58 | Cc1c(CC(=O)O)cc2ccc(F)cc2c1C1CCN(S(=O)(=O)c2c(Cl)cccc2Cl)CC1 [Example 18, {4-[1-(2,6-Dichloro-benzenesulfonyl)-piperidin-4-yl]-6-fluoro-3-methyl-naphthalen-2-yl}-acetic acid] |
| 8 | Cc1c(CC(=O)O)cc2ccc(F)cc2c1C1CCN(S(=O)(=O)Cc2ccccc2)CC1 [Example 19, [6-Fluoro-3-methyl-4-(1-phenylmethanesulfonyl-piperidin-4-yl)-naphthalen-2-yl]-acetic acid] |
| 9 | COc1ccccc1S(=O)(=O)N1CCC(c2c(C)c(CC(=O)O)cc3ccc(F)cc23)CC1 [Example 20, {6-Fluoro-4-[1-(2-methoxy-benzenesulfonyl)-piperidin-4-yl]-3-methyl-naphthalen-2-yl}-acetic acid] |
| 27 | Cc1c(CC(=O)O)cc2ccc(F)cc2c1C1CCN(S(=O)(=O)Cc2ccccc2N)CC1 [Example 27, {4-[1-(2-Amino-phenylmethanesulfonyl)-piperidin-4-yl]-6-fluoro-3-methyl-naphthalen-2-yl}-acetic acid] |
